According to patent US8546443B2, “Benzylic oxindole pyrimidines” (Boehringer Ingelheim International GmbH, priority 2010, dated 2013):

Target: T1, cytoplasmic kinase domain of human IGF-1R (IGF-1R-GST) (Homo sapiens, UniProt P08069)
T1 construct: cytoplasmic kinase domain of human IGF-1R (amino acids 964-1370); GST (glutathione-S-transferase); made in house; host or cells: High Five insect cells (Invitrogen)
Test: Insulin-like growth factor-1 receptor (IGF-1R) kinase assay (DELFIA)
Format: biochemical
Details: IGF-1R-GST kinase activity, read-out: IGF1R IC50
Procedure: Insulin-Like Growth Factor-1 Receptor (IGF-1R)-Kinase Assay
The kinase activity is measured by DELFIA® assay (dissociation-enhanced lanthanide fluorescence immunoassay, Perkin Elmer). […] Enzyme activity is measured in the presence of substances and a control substance. Poly-glutamate-tyrosine peptide (pEY, Sigma Aldrich) and biotinylated pEY (bio-pEY) are used as reaction substrates.
After 40 min at RT the reactions are stopped with 50 μL of stop solution (250 mM EDTA, 20 mM HEPES pH 7.4). 90 μL from each reaction are transferred onto streptavidin-coated 96-well plates. After 120 min incubation at RT the plates are washed three times with 200 μL phosphate-buffered saline (PBS) per well. The plates are incubated for 60 min with 100 μL of europium-coupled antibody against phospho-tyrosine (diluted 1/2000 in Perkin Elmer DELFIA assay buffer) per well. The plates are washed three times with 200 μL per well of DELFIA washing buffer. 100 μL DELFIA Enhancement Solution (Perkin Elmer) is added to each well, and the plates are incubated for 10 min. The fluorescence signal is measured with a Wallac Victor TRF Reader. IC50 values for the inhibition of the IGF-1R-kinase activity are calculated using the programmes Fifty (Version 2) and GraphPad (Version 3.0).

T1 sequence (P08069 964-1367 limits assumed): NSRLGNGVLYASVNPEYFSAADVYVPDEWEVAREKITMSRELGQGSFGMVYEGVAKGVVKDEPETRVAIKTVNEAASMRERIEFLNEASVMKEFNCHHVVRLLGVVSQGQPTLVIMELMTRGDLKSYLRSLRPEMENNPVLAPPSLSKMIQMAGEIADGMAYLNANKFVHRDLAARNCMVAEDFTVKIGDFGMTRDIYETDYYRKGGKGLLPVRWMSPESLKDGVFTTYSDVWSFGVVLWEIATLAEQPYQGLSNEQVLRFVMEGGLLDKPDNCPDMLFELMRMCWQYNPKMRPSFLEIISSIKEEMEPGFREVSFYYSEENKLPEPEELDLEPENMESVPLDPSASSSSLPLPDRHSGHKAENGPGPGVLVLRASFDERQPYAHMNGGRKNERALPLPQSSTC

Going from COc1cc(N2CCN(Cc3ccncc3)CC2)ccc1Nc1ncc(C(F)(F)F)c(NCc2cccc3c2CC(=O)N3)n1 [Example I-120] to COc1cc(N2CCN(CCF)CC2)ccc1Nc1ncc(C(F)(F)F)c(NCc2cccc3c2CC(=O)N3)n1 [Example I-222], the IC50 falls from 49 nM to 32 nM (1.5-fold). The second is the more potent here.

First: CNC1CCN(c2ccc(Nc3ncc(C(F)(F)F)c(NCc4cccc5c4CC(=O)N5)n3)c(OC)c2)CC1 [Example I-187]
Second: COc1cc(N2CCC(NCCO)CC2)ccc1Nc1ncc(C(F)(F)F)c(NCc2cccc3c2CC(=O)N3)n1 [Example I-191]
The IC50 of the first is 1.5-fold lower: 4 nM for the first, 6 nM for the second. The first is the more potent here.

Going from COc1cc(N2CCN(C(=O)C3CCCN(C)C3)CC2)ccc1Nc1ncc(C(F)(F)F)c(NCc2cccc3c2C(C)(C)C(=O)N3)n1 (stereo not shown) [Example I-90] to COc1cc(N2CCN(C(=O)C3CCCN(C)C3)CC2)ccc1Nc1ncc(Cl)c(NCc2cccc3c2C(C)(C)C(=O)N3)n1 (stereo not shown) [Example I-63], the IC50 rises from 0.32 nM to 2 nM (6.2-fold).

First: COc1cc(N2CCC(N3CCC(N(C)C)CC3)CC2)ccc1Nc1ncc(C(F)(F)F)c(NCc2cccc3c2CC(=O)N3)n1 [Example I-182]
Second: COc1cc(N2CCC(N3CCN(C(C)C)CC3)CC2)ccc1Nc1ncc(C(F)(F)F)c(NCc2cccc3c2CC(=O)N3)n1 [Example I-198]
The IC50 of the first is 3.7-fold lower: 3 nM for the first, 11 nM for the second.

First: COc1cc(N2CC3CC2CN3CC2CC2)ccc1Nc1ncc(C(F)(F)F)c(NCc2cccc3c2C(C)(C)C(=O)N3)n1 (stereo not shown) [Example I-149]
Second: COc1cc(N2CC3CC2CN3C2COC2)ccc1Nc1ncc(C(F)(F)F)c(NCc2cccc3c2C(C)(C)C(=O)N3)n1 (stereo not shown) [Example I-154]
The IC50 of the first is 6.5-fold lower: 2 nM for the first, 13 nM for the second.

Going from CC(=O)N1CCC(n2cc(Nc3ncc(Cl)c(NCc4cccc5c4C(C)(C)C(=O)N5)n3)cn2)CC1 [Example I-2] to CNC(=O)CN1CCC(c2ccc(Nc3ncc(Cl)c(NCc4cccc5c4C(C)(C)C(=O)N5)n3)cc2)CC1 [Example I-206], the IC50 falls from 21 nM to 5 nM (4.2-fold). The second is the more potent here.

Compared with COc1cc(N2CCN(C(=O)CN3CCN(C)CC3)CC2)ccc1Nc1ncc(C(F)(F)F)c(NCc2cccc3c2C(C)(C)C(=O)N3)n1 [Example I-88], COc1cc(N2CCN(C(=O)CN3CCN(C)CC3)CC2)ccc1Nc1ncc(Cl)c(NCc2cccc3c2C(C)(C)C(=O)N3)n1 [Example I-61] is 3-fold lower in IC50: 9 nM for the first, 3 nM for the second. The second is the more potent here.

Going from CCC1(CC)C(=O)Nc2cccc(CNc3nc(Nc4ccc(C(=O)NC5CCN(C)CC5)cc4OC)ncc3C(F)(F)F)c21 [Example I-233] to CCN1CCC(NC(=O)c2ccc(Nc3ncc(C(F)(F)F)c(NCc4cccc5c4C(C)(C)C(=O)N5)n3)c(OC)c2)CC1 [Example I-225], the IC50 falls from 58 nM to 2 nM (29-fold). The second is the more potent here.

First: CCOC(=O)N1CCN(c2ccc(Nc3ncc(C(F)(F)F)c(NCc4cccc5c4CC(=O)N5)n3)c(OC)c2)CC1 [Example I-72]
Second: COc1cc(N2CCN(C(C)=O)CC2)ccc1Nc1ncc(C(F)(F)F)c(NCc2cccc3c2CC(=O)N3)n1 [Example I-70]
The IC50 of the first is 3.4-fold higher: 72 nM for the first, 21 nM for the second. The second is the more potent here.

Compared with CNC(=O)CN1CCC(c2ccc(Nc3ncc(Cl)c(NCc4cccc5c4C(C)(C)C(=O)N5)n3)c(C)c2)CC1 [Example I-219], Cc1cc(C2CCCNC2)ccc1Nc1ncc(Br)c(NCc2cccc3c2C(C)(C)C(=O)N3)n1 (racemic) [Example I-7] is 2.9-fold lower in IC50: 2 nM for the first, 0.69 nM for the second.

First: COc1cc(N2CCC(N3CCC3)CC2)ccc1Nc1ncc(C(F)(F)F)c(NCc2cccc3c2C(C)(C)C(=O)N3)n1 [Example I-176]
Second: COc1cc(N2CCC(N3CC[C@H](O)C3)CC2)ccc1Nc1ncc(C(F)(F)F)c(NCc2cccc3c2C(C)(C)C(=O)N3)n1 [Example I-172]
The IC50 of the first is 2.4-fold higher: 0.98 nM for the first, 0.4 nM for the second. The second is the more potent here.

Compared with COc1cc(N2CC3CC2CN3C(C)C)ccc1Nc1ncc(C(F)(F)F)c(NCc2cccc3c2C(C)(C)C(=O)N3)n1 (stereo not shown) [Example I-152], CCN1CCN(c2ccc(Nc3ncc(C(F)(F)F)c(NCc4cccc5c4C(C)(C)C(=O)N5)n3)c(OC)c2)CC1 [Example I-157] is 4.9-fold lower in IC50: 3 nM for the first, 0.61 nM for the second.

Going from CN(C)CC(=O)N1CCC(c2ccc(Nc3ncc(Br)c(NCc4cccc5c4C(C)(C)C(=O)N5)n3)cc2)CC1 [Example I-42] to CN(C)CCCC(=O)N1CCC(c2ccc(Nc3ncc(C(F)(F)F)c(NCc4cccc5c4C(C)(C)C(=O)N5)n3)cc2)CC1 [Example I-74], the IC50 rises from 0.79 nM to 2 nM (2.5-fold). The first is the more potent here.

Going from COc1cc(N2CCN(C(C)=O)CC2)ccc1Nc1ncc(C(F)(F)F)c(NCc2cccc3c2C(C)(C)C(=O)N3)n1 [Example I-77] to COCCC(=O)N1CCN(c2ccc(Nc3ncc(C(F)(F)F)c(NCc4cccc5c4C(C)(C)C(=O)N5)n3)c(OC)c2)CC1 [Example I-85], the IC50 rises from 3 nM to 9 nM (3-fold).

Compared with COc1cc(C(=O)NCCN2CCCC2)ccc1Nc1ncc(C(F)(F)F)c(NCc2cccc3c2CC(=O)N3)n1 [Example I-232], CCN1CCC(NC(=O)c2ccc(Nc3ncc(C(F)(F)F)c(NCc4cccc5c4CC(=O)N5)n3)c(OC)c2)CC1 [Example I-229] is 3.9-fold lower in IC50: 47 nM for the first, 12 nM for the second.

Going from COc1cc(N2CCC(NCCCN(C)C)CC2)ccc1Nc1ncc(C(F)(F)F)c(NCc2cccc3c2CC(=O)N3)n1 [Example I-183] to COCCNC1CCN(c2ccc(Nc3ncc(C(F)(F)F)c(NCc4cccc5c4CC(=O)N5)n3)c(OC)c2)CC1 [Example I-179], the IC50 falls from 3 nM to 2 nM (1.5-fold).

COc1cc(N2CCN(C)CC2)ccc1Nc1ncc(C(F)(F)F)c(NCc2cccc3c2CC(=O)N3)n1 [Example I-119] and CCOc1cc(N2CCN(C)CC2)ccc1Nc1ncc(C(F)(F)F)c(NCc2cccc3c2CC(=O)N3)n1 [Example I-138] are within 1.5-fold of each other in IC50: 11 nM for the first, 13 nM for the second.

First: COc1cc(N2CCN(C3CCOCC3)[C@H](C)C2)ccc1Nc1ncc(C(F)(F)F)c(NCc2cccc3c2C(C)(C)C(=O)N3)n1 [Example I-105]
Second: COc1cc(N2CCN(C3COC3)CC2)ccc1Nc1ncc(C(F)(F)F)c(NCc2cccc3c2C(C)(C)C(=O)N3)n1 [Example I-156]
The IC50 of the first is 2-fold lower: 2 nM for the first, 4 nM for the second.

CC(C)(C)OC(=O)N1CC(C(=O)N2CCC(c3ccc(Nc4ncc(Cl)c(NCc5cccc6c5C(C)(C)C(=O)N6)n4)cc3)CC2)C1 [Example I-47] and CN(CC(=O)N1CCC(c2ccc(Nc3ncc(Cl)c(NCc4cccc5c4C(C)(C)C(=O)N5)n3)cc2)CC1)C(=O)OC(C)(C)C [Example I-46] are within 1.5-fold of each other in IC50: 38 nM for the first, 29 nM for the second.

Compared with CCOc1cc(N2CCN(C)CC2)ccc1Nc1ncc(C(F)(F)F)c(NCc2cccc3c2C(C)(C)C(=O)N3)n1 [Example I-142], CN1CCN(c2ccc(Nc3ncc(C(F)(F)F)c(NCc4cccc5c4C(C)(C)C(=O)N5)n3)cn2)CC1 [Example I-133] is 24-fold higher in IC50: 0.55 nM for the first, 13 nM for the second.

Going from COc1cc(N2CCN(C(=O)N(C)C)CC2)ccc1Nc1ncc(C(F)(F)F)c(NCc2cccc3c2CC(=O)N3)n1 [Example I-71] to COc1cc(N2CCN(C(=O)CCCN(C)C)CC2)ccc1Nc1ncc(C(F)(F)F)c(NCc2cccc3c2CC(=O)N3)n1 [Example I-92], the IC50 falls from 50 nM to 9 nM (5.6-fold). The second is the more potent here.

Going from COCCN(C)C1CCN(c2ccc(Nc3ncc(C(F)(F)F)c(NCc4cccc5c4CC(=O)N5)n3)c(OC)c2)CC1 [Example I-197] to COCCN1CCN(c2ccc(Nc3ncc(C(F)(F)F)c(NCc4cccc5c4CC(=O)N5)n3)c(OC)c2)CC1 [Example I-224], the IC50 rises from 9 nM to 18 nM (2-fold).

First: COc1cc(N2CCC(N3CCN(C(C)=O)CC3)CC2)ccc1Nc1ncc(C(F)(F)F)c(NCc2cccc3c2CC(=O)N3)n1 [Example I-201]
Second: CCN1CCC(N2CCN(c3ccc(Nc4ncc(C(F)(F)F)c(NCc5cccc6c5CC(=O)N6)n4)c(OC)c3)CC2)CC1 [Example I-114]
The IC50 of the first is 5-fold higher: 20 nM for the first, 4 nM for the second. The second is the more potent here.

Going from COc1cc(N2CCN(C3CCOCC3)CC2)ccc1Nc1ncc(Cl)c(NCc2cccc3c2C(C)(C)C(=O)N3)n1 [Example I-95] to CCOC(=O)N1CCC(N2CCN(c3ccc(Nc4ncc(C(F)(F)F)c(NCc5cccc6c5C(C)(C)C(=O)N6)n4)c(OC)c3)CC2)CC1 [Example I-163], the IC50 falls from 16 nM to 10 nM (1.6-fold). The second is the more potent here.

First: COc1cc(N2CCN(C3CCN(C4CCOCC4)CC3)CC2)ccc1Nc1ncc(C(F)(F)F)c(NCc2cccc3c2CC(=O)N3)n1 [Example I-115]
Second: COc1cc(N2CCN(C3CCN(C(C)C)CC3)CC2)ccc1Nc1ncc(C(F)(F)F)c(NCc2cccc3c2CC(=O)N3)n1 [Example I-111]
The IC50 of the first is 1.8-fold lower: 10 nM for the first, 18 nM for the second.

First: COc1cc(N2CCN(C(=O)CCCN(C)C)CC2)ccc1Nc1ncc(C(F)(F)F)c(NCc2cccc3c2C(C)(C)C(=O)N3)n1 [Example I-86]
Second: COc1cc(N2CCC(NCC(C)(C)OC)CC2)ccc1Nc1ncc(C(F)(F)F)c(NCc2cccc3c2C(C)(C)C(=O)N3)n1 [Example I-173]
The IC50 of the first is 2.2-fold higher: 1 nM for the first, 0.46 nM for the second. The second is the more potent here.

CN1CCN(c2ccc(Nc3ncc(Br)c(NCc4cccc5c4CC(=O)N5)n3)cc2)CC1 [Example I-8] and CCOc1cc(N2CCN(C3COC3)CC2)ccc1Nc1ncc(C(F)(F)F)c(NCc2cccc3c2CC(=O)N3)n1 [Example I-141] are within 1.5-fold of each other in IC50: 28 nM for the first, 19 nM for the second.

CCN1CCN(c2ccc(Nc3ncc(C(F)(F)F)c(NCc4cccc5c4C(C)(C)C(=O)N5C)n3)c(OC)c2)CC1 [Example I-129] and COc1cc(N2CCN(C3CCN(C)CC3)CC2)ccc1Nc1ncc(C(F)(F)F)c(NCc2cccc3c2C(C)(C)C(=O)N3C)n1 [Example I-130] are the same in IC50: 2 nM for the first, 2 nM for the second.

COc1cc(N2CCC(N3CCC(F)(F)CC3)CC2)ccc1Nc1ncc(C(F)(F)F)c(NCc2cccc3c2CC(=O)N3)n1 [Example I-199] and COc1cc(N2CCN(C3CCN(S(=O)(=O)N(C)C)CC3)CC2)ccc1Nc1ncc(C(F)(F)F)c(NCc2cccc3c2CC(=O)N3)n1 [Example I-124] are within 1.5-fold of each other in IC50: 11 nM for the first, 12 nM for the second.
